Experimental data taken from article PMC11995216, “End-to-End Backbone Cyclization Enhances Passive Permeability of bRo5 Oligomeric Depsipeptides with Nonlinear Size Dependence” (ACS Medicinal Chemistry Letters, 2025).
Values joined by “and” are separate entries in the source; they are usually repeats but may differ in a detail not shown here. Identical values can stand only once. Like-named read-outs stand apart in the source and are kept apart here. Starred links: 1 amine or outer side, 2 acyl side, 3 side chain; linkers in the order of their positions; H or OH if unused. Non-standard residues stand in square brackets, D forms with d. Residues, ends and D or L forms follow the SMILES beside them. *: point of attachment. X1 = CCCCC[C@H](O[*:1])C(=O)[*:2]; Ahp(2) = CCCCC[C@H](N)C(=O)O; dNMeA = CN[C@H](C)C(=O)O; OBn = c1ccc(CO*)cc1

Legend:
[1] = initial concentration 500 uM, UV detection
[2] = UV detection
[3] = initial concentration 500 uM, UV detection; remark: listed apart in the source
[4] = calculated using Supplement Equation 1, UV detection
PAMPA [5] = settings: UV detection
in vitro = settings: PAMPA, Papp
PAMPA [6] = tested on: PAMPA
[7] = PAMPA, 500 uM
PAMPA [8] = settings: initial concentration 500 uM
PAMPA [9] = settings: initial concentration 500 uM, UV detection
PAMPA [10] = settings: calculated using Supplement Equation 1, UV detection

## CCCCC[C@H](NC(=O)[C@@H](C)N(C)C(=O)[C@H](CCCCC)NC(=O)[C@@H](C)N(C)C(=O)[C@H](CCCCC)NC(=O)[C@@H](C)N(C)C(=O)[C@H](CCCCC)OC(=O)[C@@H](C)NC)C(=O)OCc1ccccc1 (H-[dNMeA][X1][dNMeA][Ahp(2)][dNMeA][Ahp(2)][dNMeA][Ahp(2)]-OBn)
[1]; Well 1 / [acc], Well 1
  acceptor concentration after incubation: 56 µM and 61.7 µM
[1]; Well 2 / [acc], Well 2
  acceptor concentration after incubation: 58.6 µM and 63.1 µM
[1]; Well 3 / [acc], Well 3
  acceptor concentration after incubation: 59.5 µM and 60.4 µM
[1]; Well 4 / [acc], Well 4
  acceptor concentration after incubation: 58.3 µM and 60.3 µM
[1]; Well 5 / [acc], Well 5
  acceptor concentration after incubation: 60.6 µM and 61.4 µM
[2]; Well 1 / %R, Well 1
  % recovery: 91% and 92%
[2]; Well 2 / %R, Well 2
  % recovery: 87% and 92%
[2]; Well 3 / %R, Well 3
  % recovery: 90%
[2]; Well 4 / %R, Well 4
  % recovery: 88% and 86%
[2]; Well 5 / %R, Well 5
  % recovery: 87% and 88%
[3]; Well 1 / [donor], Well 1
  donor concentration after incubation: 396 µM and 397 µM
[3]; Well 2 / [donor], Well 2
  donor concentration after incubation: 375 µM and 395 µM
[3]; Well 3 / [donor], Well 3
  donor concentration after incubation: 387 µM and 374 µM
[3]; Well 4 / [donor], Well 4
  donor concentration after incubation: 382 µM and 368 µM
[3]; Well 5 / [donor], Well 5
  donor concentration after incubation: 376 µM and 377 µM
[4]; Well 1 / %T, Well 1
  %T: 0.52% and 0.53%
[4]; Well 2 / %T, Well 2
  %T: 0.54%
[4]; Well 3 / %T, Well 3
  %T: 0.53% and 0.5%
[4]; Well 4 / %T, Well 4
  %T: 0.5% and 0.52%
[4]; Well 5 / %T, Well 5
  %T: 0.53% and 0.52%

## CCCCC[C@@H]1OC(=O)[C@@H](C)N(C)C(=O)[C@H](CCCCC)OC(=O)[C@@H](C)N(C)C1=O [Compound C1.2]
PAMPA [5]; Well 1 / %R, Well 1
  % recovery: 90%
PAMPA [5]; Well 2 / %R, Well 2
  % recovery: 90% and 92%
PAMPA [5]; Well 3 / %R, Well 3
  % recovery: 93% and 90%
PAMPA [5]; Well 4 / %R, Well 4
  % recovery: 92%
PAMPA [5]; Well 5 / %R, Well 5
  % recovery: 88% and 89%
In vitro
  Papp at 500 uM: 5.05 ± 0.33 ×10⁻⁶ cm/s
In vitro; Ave
  Papp at 500 uM: 4.78 ×10⁻⁶ cm/s
PAMPA [6]; Papp (x 10^-6 cm/s) – ELSD Detection / [row 1], ELSD Detection
  Papp: 4.36 ×10⁻⁶ cm/s
PAMPA [6]; Papp (x 10^-6 cm/s) – ELSD Detection / [row 2], ELSD Detection
  Papp: 4.48 ×10⁻⁶ cm/s
PAMPA [6]; Papp (x 10^-6 cm/s) – ELSD Detection / [row 3], ELSD Detection
  Papp: 4.72 ×10⁻⁶ cm/s
PAMPA [6]; Papp (x 10^-6 cm/s) – ELSD Detection / [row 4], ELSD Detection
  Papp: 4.83 ×10⁻⁶ cm/s
PAMPA [6]; Papp (x 10^-6 cm/s) – ELSD Detection / [row 5], ELSD Detection
  Papp: 4.34 ×10⁻⁶ cm/s
PAMPA [6]; Papp (x 10^-6 cm/s) – ELSD Detection / [row 6], ELSD Detection
  Papp: 4.86 ×10⁻⁶ cm/s
PAMPA [6]; Papp (x 10^-6 cm/s) – ELSD Detection / [row 7], ELSD Detection
  Papp: 4.88 ×10⁻⁶ cm/s
PAMPA [6]; Papp (x 10^-6 cm/s) – ELSD Detection / [row 8], ELSD Detection
  Papp: 5.23 ×10⁻⁶ cm/s
PAMPA [6]; Papp (x 10^-6 cm/s) – ELSD Detection / [row 9], ELSD Detection
  Papp: 5.23 ×10⁻⁶ cm/s
PAMPA [6]; Papp (x 10^-6 cm/s) – ELSD Detection / [row 10], ELSD Detection
  Papp: 4.89 ×10⁻⁶ cm/s
PAMPA [6]; Papp (x 10^-6 cm/s) – UV Detection / [row 1], UV Detection
  Papp: 4.63 ×10⁻⁶ cm/s
PAMPA [6]; Papp (x 10^-6 cm/s) – UV Detection / [row 2], UV Detection
  Papp: 4.93 ×10⁻⁶ cm/s
PAMPA [6]; Papp (x 10^-6 cm/s) – UV Detection / [row 3], UV Detection
  Papp: 5.16 ×10⁻⁶ cm/s
PAMPA [6]; Papp (x 10^-6 cm/s) – UV Detection / [row 4], UV Detection
  Papp: 5.2 ×10⁻⁶ cm/s
PAMPA [6]; Papp (x 10^-6 cm/s) – UV Detection / [row 6], UV Detection
  Papp: 4.49 ×10⁻⁶ cm/s
PAMPA [6]; Papp (x 10^-6 cm/s) – UV Detection / [row 7], UV Detection
  Papp: 5.18 ×10⁻⁶ cm/s
PAMPA [6]; Papp (x 10^-6 cm/s) – UV Detection / [row 8], UV Detection
  Papp: 5.55 ×10⁻⁶ cm/s
PAMPA [6]; Papp (x 10^-6 cm/s) – UV Detection / [row 9], UV Detection
  Papp: 5.44 ×10⁻⁶ cm/s
PAMPA [6]; Papp (x 10^-6 cm/s) – UV Detection / [row 10], UV Detection
  Papp: 4.87 ×10⁻⁶ cm/s
[7]
  LogPapp: -5.30 ± 0.03
  Δ % diffusion: ↑5%
PAMPA [8]; Acceptor Concentration (uM) – ELSD Detection / [row 1], ELSD Detection
  Acceptor Concentration: 94.8 µM
PAMPA [8]; Acceptor Concentration (uM) – ELSD Detection / [row 2], ELSD Detection
  Acceptor Concentration: 98.9 µM
PAMPA [8]; Acceptor Concentration (uM) – ELSD Detection / [row 3], ELSD Detection
  Acceptor Concentration: 102 µM
PAMPA [8]; Acceptor Concentration (uM) – ELSD Detection / [row 4], ELSD Detection
  Acceptor Concentration: 107 µM
PAMPA [8]; Acceptor Concentration (uM) – ELSD Detection / [row 5], ELSD Detection
  Acceptor Concentration: 98.1 µM
PAMPA [8]; Acceptor Concentration (uM) – ELSD Detection / [row 6], ELSD Detection
  Acceptor Concentration: 113 µM
PAMPA [8]; Acceptor Concentration (uM) – ELSD Detection / [row 7], ELSD Detection
  Acceptor Concentration: 118 µM
PAMPA [8]; Acceptor Concentration (uM) – ELSD Detection / [row 8], ELSD Detection
  Acceptor Concentration: 122 µM
PAMPA [8]; Acceptor Concentration (uM) – ELSD Detection / [row 9], ELSD Detection
  Acceptor Concentration: 113 µM
PAMPA [8]; Acceptor Concentration (uM) – ELSD Detection / [row 10], ELSD Detection
  Acceptor Concentration: 109 µM
PAMPA [8]; Acceptor Concentration (uM) – UV Detection / [row 1], UV Detection
  Acceptor Concentration: 98.5 µM
PAMPA [8]; Acceptor Concentration (uM) – UV Detection / [row 2], UV Detection
  Acceptor Concentration: 103 µM
PAMPA [8]; Acceptor Concentration (uM) – UV Detection / [row 3], UV Detection
  Acceptor Concentration: 111 µM
PAMPA [8]; Acceptor Concentration (uM) – UV Detection / [row 4], UV Detection
  Acceptor Concentration: 108 µM
PAMPA [8]; Acceptor Concentration (uM) – UV Detection / [row 5], UV Detection
  Acceptor Concentration: 103 µM
PAMPA [8]; Acceptor Concentration (uM) – UV Detection / [row 6], UV Detection
  Acceptor Concentration: 95 µM
PAMPA [8]; Acceptor Concentration (uM) – UV Detection / [row 7], UV Detection
  Acceptor Concentration: 109 µM
PAMPA [8]; Acceptor Concentration (uM) – UV Detection / [row 8], UV Detection
  Acceptor Concentration: 114 µM
PAMPA [8]; Acceptor Concentration (uM) – UV Detection / [row 9], UV Detection
  Acceptor Concentration: 114 µM
PAMPA [9]; Well 1 / [donor], Well 1
  donor concentration after incubation: 356 µM
PAMPA [9]; Well 2 / [donor], Well 2
  donor concentration after incubation: 347 µM and 350 µM
PAMPA [9]; Well 3 / [donor], Well 3
  donor concentration after incubation: 356 µM and 338 µM
PAMPA [9]; Well 4 / [donor], Well 4
  donor concentration after incubation: 346 µM
PAMPA [9]; Well 5 / [donor], Well 5
  donor concentration after incubation: 339 µM and 346 µM
PAMPA [10]; Well 1 / %T, Well 1
  %T: 0.56% and 0.55%
PAMPA [10]; Well 2 / %T, Well 2
  %T: 0.58% and 0.6%
PAMPA [10]; Well 3 / %T, Well 3
  %T: 0.6% and 0.62%
PAMPA [10]; Well 4 / %T, Well 4
  %T: 0.6% and 0.61%
PAMPA [10]; Well 5 / %T, Well 5
  %T: 0.59% and 0.57%
